The target of assay [1] is T1, Cysteinyl leukotriene receptor 2 (Homo sapiens, UniProt Q9NS75).
T1 sequence (Q9NS75 whole entry): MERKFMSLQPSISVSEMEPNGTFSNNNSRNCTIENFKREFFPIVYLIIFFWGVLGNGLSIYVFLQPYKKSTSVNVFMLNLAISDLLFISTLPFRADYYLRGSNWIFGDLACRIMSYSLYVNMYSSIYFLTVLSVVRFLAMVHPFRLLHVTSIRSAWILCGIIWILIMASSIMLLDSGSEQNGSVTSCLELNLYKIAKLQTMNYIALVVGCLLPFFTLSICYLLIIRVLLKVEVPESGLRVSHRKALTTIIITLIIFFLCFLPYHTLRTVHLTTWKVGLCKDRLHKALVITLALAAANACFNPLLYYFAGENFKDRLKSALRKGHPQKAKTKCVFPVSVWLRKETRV
Kind of assay: Antagonist activity against CysLT2 receptor (unknown origin) expressed in HEK293 cells assessed as inhibition of LTD4-induced calcium mobilization pre-incubated for 10 mins before LTD4 addition by Fluo-4 AM dye based fluorimetric assay. In kind it is functional, cell-based. For orientation: Calcium assays in cells follow changes in intracellular calcium, usually with a dye or a luminescent sensor.

For assay [2], the target named is T2, Cysteinyl leukotriene receptor 1 (Homo sapiens, UniProt Q9Y271).
T2 sequence (Q9Y271 whole entry): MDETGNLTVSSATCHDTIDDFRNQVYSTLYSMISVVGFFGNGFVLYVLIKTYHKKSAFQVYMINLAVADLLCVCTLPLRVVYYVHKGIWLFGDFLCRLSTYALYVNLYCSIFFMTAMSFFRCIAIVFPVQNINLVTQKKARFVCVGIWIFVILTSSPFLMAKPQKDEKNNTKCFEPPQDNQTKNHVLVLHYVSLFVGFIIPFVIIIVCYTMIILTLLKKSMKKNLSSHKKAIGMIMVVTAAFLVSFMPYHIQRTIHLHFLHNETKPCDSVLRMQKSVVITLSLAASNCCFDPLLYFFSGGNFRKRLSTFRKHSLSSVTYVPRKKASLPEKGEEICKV
Kind of assay: Antagonist activity against CysLT1 receptor (unknown origin) expressed in HEK293 cells assessed as inhibition of LTD4-induced calcium mobilization pre-incubated for 10 mins before LTD4 addition by Fluo-4 AM dye based fluorimetric assay. In kind it is functional, cell-based.

Assay [3] concerns the target T3, Cysteinyl leukotriene receptor 1 (Mus musculus) (UniProt Q99JA4).
T3 sequence (whole entry): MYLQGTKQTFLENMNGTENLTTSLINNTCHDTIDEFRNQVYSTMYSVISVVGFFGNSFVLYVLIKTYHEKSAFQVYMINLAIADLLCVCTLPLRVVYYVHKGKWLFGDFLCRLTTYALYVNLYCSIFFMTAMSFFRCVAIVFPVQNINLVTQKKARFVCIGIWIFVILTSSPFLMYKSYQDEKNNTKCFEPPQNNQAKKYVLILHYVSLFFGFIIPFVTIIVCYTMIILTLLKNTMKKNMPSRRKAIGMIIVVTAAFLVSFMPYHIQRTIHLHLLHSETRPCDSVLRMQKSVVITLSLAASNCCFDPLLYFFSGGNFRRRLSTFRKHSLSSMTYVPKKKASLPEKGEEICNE
In words: Antagonist activity at LTD4 receptor in splenocytes isolated from MOG(35 to 55 residues) containing CFA immunized and pertussis toxin-induced C57BL/6 mouse experimental autoimmune encephalomyelitis model assessed as inhibition of LTD4-induced leukocyte chemotaxis at 100 nM after 1.5 hrs by flow cytometric analysis. In kind it is cell-based. In general terms: In flow cytometry, cells or beads pass a laser one at a time.

For assay [4], the target named is T3, Cysteinyl leukotriene receptor 1 (Mus musculus). Kind of assay: Antagonist activity at LTD4 receptor in splenocytes isolated from MOG(35 to 55 residues) containing CFA immunized and pertussis toxin-induced C57BL/6 mouse experimental autoimmune encephalomyelitis model assessed as inhibition of LTD4-induced leukocyte chemotaxis at 10 nM after 1.5 hrs by flow cytometric analysis. The class given is cell-based.

Assay [5] has the same target. The conditions noted are these: C57BL/6, at 1 µM.

Calls of active or inactive are those of the source. No cut-off for these calls is given here. Bounds are passed on as bounds.

A word on the IC50: it is the concentration that gives 50% inhibition. Regarding `O=C(/C=C/c1c(C(=O)O)[nH]c2cc(Cl)cc(Cl)c12)Nc1cccc(/C=C/c2ccc3ccc(Cl)cc3n2)c1`, the results for the IC50 in assay [1] and in assay [2] were more than 100 µM and 0.29 µM, respectively.
For the molecule `O=C(/C=C/c1c(C(=O)O)[nH]c2cc(Cl)cc(Cl)c12)OCc1ccccc1`, the IC50 in assay [1] and in assay [2] was more than 100 µM throughout.
As for `O=C(/C=C/c1c(C(=O)O)[nH]c2cccc(Cl)c12)Nc1cccc(/C=C/c2ccc3ccc(Cl)cc3n2)c1`, the results for the IC50 in assay [1] and in assay [2] were 36 µM and 0.067 µM, respectively.
As to `O=C(CCc1c(C(=O)O)[nH]c2ccccc12)Nc1cccc(/C=C/c2ccc3ccc(Cl)cc3n2)c1`, the IC50 in assay [1] amounted to 50 µM; in assay [2] it was 0.058 µM.
Consider `N#CCCCCOC(=O)/C=C/c1c(C(=O)O)[nH]c2cc(Cl)cc(Cl)c12`, for which the IC50 in assay [1] and in assay [2] was more than 100 µM in each case.
In the case of `O=C(/C=C/c1c[nH]c2cc(Cl)cc(Cl)c12)OCc1cccc(/C=C/c2ccc3ccc(Cl)cc3n2)c1`, the figures for the IC50 in assay [1] and in assay [2] were more than 100 µM and 31 µM, respectively.
As to `CCCCCOC(=O)/C=C/c1c(C(=O)O)[nH]c2cc(Cl)cc(Cl)c12`, the IC50 in assay [1] and in assay [2] was more than 100 µM each time.
What is called inhibition is the share of the control response that was lost under treatment. Regarding `O=C(/C=C/c1c(C(=O)O)[nH]c2ccccc12)Nc1cccc(/C=C/c2ccc3ccc(Cl)cc3n2)c1`, the IC50 in assay [1] was determined as 58 µM; in assay [2], 0.009 µM. For the same molecule, the inhibition in assay [3] is more than 50%.
Take `CC(C)CCCOC(=O)/C=C/c1c(C(=O)O)[nH]c2cc(Cl)cc(Cl)c12`: the IC50 in assay [1] and in assay [2] was more than 100 µM in each case.
Turning to `COc1ccc2c(/C=C/C(=O)Nc3cccc(/C=C/c4ccc5ccc(Cl)cc5n4)c3)c(C(=O)O)[nH]c2c1`, the IC50 is more than 100 µM in assay [1] and 0.012 µM in assay [2]. The inhibition in assay [3] was more than 50%.
Turning to `O=C(/C=C/c1c(C(=O)O)[nH]c2cc(Cl)cc(Cl)c12)OCCc1ccccc1`, the IC50 in assay [1] and in assay [2] was more than 100 µM throughout.
In the case of `O=C(/C=C/c1c(C(=O)O)[nH]c2cc(Cl)cc(Cl)c12)OCCCCc1ccccc1`, the IC50 in assay [1] and in assay [2] was more than 100 µM in each case.
Take `O=C(O)c1ccc(OCCCc2ccc(OCCCCOc3ccccc3)cc2)c(C(=O)NC2CCCC(C(=O)O)C2)c1` (stereo unspecified): the IC50 in assay [2] is more than 2.5 µM.
In the case of `COc1ccc2[nH]c(C(=O)O)c(/C=C/C(=O)Nc3cccc(/C=C/c4ccc5ccc(Cl)cc5n4)c3)c2c1`, the IC50 was 46 µM in assay [1] and 0.025 µM in assay [2].
Regarding `O=C(/C=C/c1c(C(=O)O)[nH]c2ccc(F)cc12)Nc1cccc(/C=C/c2ccc3ccc(Cl)cc3n2)c1`, in assay [4], the inhibition result was “Active”. The IC50 in assay [1] stood at 46 µM; in assay [2], 0.0078 µM. For the same molecule, the inhibition in assay [3] was more than 50%.
With `O=C(/C=C/c1c(C(=O)O)[nH]c2cc(Cl)cc(Cl)c12)OC1CCCCC1`, the IC50 in assay [1] and in assay [2] was more than 100 µM each time.
With `O=C(/C=C/c1c(C(=O)O)[nH]c2cc(Cl)cc(Cl)c12)Oc1ccccc1`, the IC50 in assay [1] and in assay [2] was more than 100 µM each time.
As to `O=C(/C=C/c1c(C(=O)O)[nH]c2c(Cl)cccc12)Nc1cccc(/C=C/c2ccc3ccc(Cl)cc3n2)c1`, the IC50 is more than 100 µM in assay [1] and 0.016 µM in assay [2].
Consider `CC(C)(O)c1ccccc1CC[C@@H](SCC1(CC(=O)O)CC1)c1cccc(/C=C/c2ccc3ccc(Cl)cc3n2)c1`, for which the inhibition in assay [5] turned out to be 50%.
Regarding `O=C(/C=C/c1c(C(=O)O)[nH]c2ccccc12)OCc1cccc(/C=C/c2ccc3ccc(Cl)cc3n2)c1`, the IC50 was more than 100 µM in assay [1] and 0.12 µM in assay [2].
Take `O=C(/C=C/c1c(C(=O)O)[nH]c2cc(Cl)ccc12)Nc1cccc(/C=C/c2ccc3ccc(Cl)cc3n2)c1`: the 50% inhibitory concentration (IC50) in assay [1] amounted to 87 µM; in assay [2] it was 0.022 µM.
`O=C(/C=C/c1c(C(=O)O)[nH]c2ccc(Cl)cc12)Nc1cccc(/C=C/c2ccc3ccc(Cl)cc3n2)c1`: the IC50 was more than 100 µM in assay [1] and 0.017 µM in assay [2].
In the case of `O=C(/C=C/c1c(C(=O)O)[nH]c2cc(F)cc(F)c12)Nc1cccc(/C=C/c2ccc3ccc(Cl)cc3n2)c1`, the figures for the concentration for half-maximal inhibition (IC50) in assay [1] and in assay [2] were 76 µM and 0.038 µM, respectively.
For `O=C(O)c1[nH]c2ccccc2c1C(=O)Nc1cccc(/C=C/c2ccc3ccc(Cl)cc3n2)c1`, the IC50 is 23 µM in assay [1] and 0.035 µM in assay [2].
Turning to `O=C(/C=C/c1c(C(=O)O)[nH]c2cc(Cl)cc(Cl)c12)OCCCc1ccccc1`, the IC50 in assay [1] and in assay [2] was more than 100 µM each time.
As to `O=C(/C=C/c1c(C(=O)O)[nH]c2cc(Cl)cc(Cl)c12)OCC1CCCCC1`, the IC50 in assay [1] and in assay [2] was more than 100 µM throughout.
Regarding `O=C(/C=C/c1c(C(=O)O)[nH]c2cc(Cl)cc(Cl)c12)OCc1cccc(/C=C/c2ccc3ccc(Cl)cc3n2)c1`, the inhibition in assay [5] was 50%. Moreover, the IC50 is more than 100 µM in assay [1] and 0.66 µM in assay [2].
For the molecule `COc1cccc2c(/C=C/C(=O)Nc3cccc(/C=C/c4ccc5ccc(Cl)cc5n4)c3)c(C(=O)O)[nH]c12`, the inhibition entry in assay [4] was “Active”. Moreover, the IC50 in assay [1] came to 15 µM; in assay [2] it was 0.0059 µM. Moreover, the inhibition in assay [3] was more than 50%.

The record behind these values is ChEMBL document CHEMBL3808374, “Discovery of 3-Substituted 1H-Indole-2-carboxylic Acid Derivatives as a Novel Class of CysLT1 Selective Antagonists” (ACS Med Chem Lett, 2016).
